Results on nine compounds are retold here after patent US12091402B2 (Avilar Therapeutics, Inc., priority 2021, dated 2024).

The structures appear in SMILES notation. Read-outs that look alike come from different tables or passages of the source. *1 amine or outer side, *2 acyl side, *3 side chain or, on linkers, in order; H or OH if unused. Where a SMILES comes first, the peptide text is derived from it. Bridges are numbered along the chain shown (N, C = ends). [ ]: non-standard residue; d: D form. The star is where a group is joined. X2 = O=C(CCOCC(COCCC(=O)NCCOCCOCCOCCOC[C@H]1OC[C@H](Nc2cncc(C(F)(F)F)n2)[C@@H](O)[C@H]1O)NCC(=O)*)NCCOCCOCCOCCOC[C@H]1OC[C@H](Nc2cncc(C(F)(F)F)n2)[C@@H](O)[C@H]1O; X1 = O=C([C@@H]1C[C@H](N[*:3])CN1[*:1])[*:2] Some results are limits rather than exact numbers.

The target in one assay is T1, ASGPR (Homo sapiens, UniProt P07306).
T1 sequence (P07306 1-291): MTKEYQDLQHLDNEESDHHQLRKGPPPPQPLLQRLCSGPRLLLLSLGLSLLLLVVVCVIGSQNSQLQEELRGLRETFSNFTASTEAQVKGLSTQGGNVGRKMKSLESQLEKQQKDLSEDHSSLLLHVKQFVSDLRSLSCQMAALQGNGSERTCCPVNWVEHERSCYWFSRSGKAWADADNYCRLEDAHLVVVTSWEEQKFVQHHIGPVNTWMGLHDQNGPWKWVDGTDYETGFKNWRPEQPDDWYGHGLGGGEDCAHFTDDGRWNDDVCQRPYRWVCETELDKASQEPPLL
Description: Affinity to ASGPR by surface plasmon resonance (SPR).

The test system of another assay is HepG2 cells. As to the kind of experiment: Cellular uptake assay of AF488-labeled antibody (HepG2). In kind it is cell-based. To be noted: HepG2 cells. The method, boiled down: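 Ternary-complex uptake via ASGPR was imaged after fixation: the read-out is AF488-positive HepG2 cells divided by total DAPI nuclei. Degrader dilutions (IgG- or DNP-based, 0.1% DMSO final) were co-incubated 6 h at 37° C. with 100 nM of the corresponding fluorescent antibody.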

A further assay deals with IgG. Description: Affinity to IgG by surface plasmon resonance (SPR). In kind it is binding. The procedure: Immobilization levels ranging from 1000-1300 resonance units (RU) are obtained. The running buffer is 10 mM HEPES, pH 7.4, 400 mM NaCl, 0.005% P20, […].
Assay [1] deals with T2, ASGPR receptor on the cell surface (HepG2 cells) (Homo sapiens, UniProt P07306).
T2 construct: host or cells: HepG2
T2 sequence (P07306 1-291): T1 sequence (P07306 1-291)
T2 sequence (P07307 1-311 partner): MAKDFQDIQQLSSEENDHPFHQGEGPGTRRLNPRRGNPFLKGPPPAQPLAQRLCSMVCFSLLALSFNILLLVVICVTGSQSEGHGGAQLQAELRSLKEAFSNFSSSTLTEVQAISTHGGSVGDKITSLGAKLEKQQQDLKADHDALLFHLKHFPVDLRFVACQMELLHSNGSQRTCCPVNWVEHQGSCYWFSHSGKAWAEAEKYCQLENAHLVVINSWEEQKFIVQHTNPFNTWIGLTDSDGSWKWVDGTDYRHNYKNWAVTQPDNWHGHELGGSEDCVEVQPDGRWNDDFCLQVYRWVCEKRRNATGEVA
Description: Ternary complex formation assay (flow cytometry, HepG2). Type of assay: cell-based. The method, boiled down: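 HepG2 cells (1×10^5/well) incubated 1 h at 4 °C with 100 nM AF488-labeled anti-human IgG plus serial IgG-based degrader, or 100 nM AF488 rabbit anti-DNP plus serial DNP-based degrader. After washing, cell-associated AF488 MFI read by flow cytometry; peak MFI marks optimal degrader concentration for ternary complex.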

Setting [2] is: 100 nM AF488-labeled antibody, 37° C. for 6 hours, class symbols, read-out: Uptake Assay EC50.
The mark [3] stands for this setting: Biacore 8K, 25° C., IgG on CM5 chip, read-out: IgG SPR Binding Kd.
Where [4] appears, read: HepG2 cells, ternary complex formation, read-out: TCF EC50.

For `CC(C)C[C@@H]1NC(=O)[C@H](Cc2c[nH]cn2)NC(=O)[C@H](Cc2c[nH]c3ccccc23)NC(=O)[C@H](C)NC(=O)[C@@H]2CSSC[C@H](NC(=O)[C@H](Cc3c[nH]c4ccccc34)NC(=O)[C@H](C(C)C)NC(=O)[C@H](CC(C)C)NC(=O)[C@H](CCC(=O)O)NC(=O)CNC1=O)C(=O)N[C@@H]([C@@H](C)O)C(=O)N1CCC[C@@H]1C(=O)N1C[C@@H](NC(=O)CCOCCNC(=O)CCCc3cn(CCCCCC(=O)NC(COCCC(=O)NCCOCCOCCOCCOC[C@H]4OC[C@H](Nc5nccc(C(F)(F)F)n5)[C@@H](O)[C@H]4O)COCCC(=O)NCCOCCOCCOCCOC[C@H]4OC[C@H](Nc5nccc(C(F)(F)F)n5)[C@@H](O)[C@H]4O)nn3)C[C@H]1C(=O)N[C@@H](CC(=O)O)C(=O)N2` [Compound 6], the Kd at ASGPR and on IgG (setting [3]) was less than 100 nM each time. Moreover, the EC50 (in the assay with HepG2 cells (setting [2]); in assay [1]) was less than 100 nM throughout.
With `CC(C)C[C@@H]1NC(=O)[C@H](Cc2cnc[nH]2)NC(=O)[C@H](Cc2c[nH]c3ccccc23)NC(=O)[C@H](C)NC(=O)[C@@H]2CSSC[C@H](NC(=O)[C@H](Cc3c[nH]c4ccccc34)NC(=O)[C@H](C(C)C)NC(=O)[C@H](CC(C)C)NC(=O)[C@H](CCC(=O)O)NC(=O)CNC1=O)C(=O)N[C@@H]([C@@H](C)O)C(=O)N1CCC[C@@H]1C(=O)N1C[C@@H](NC(=O)c3ccc(N4CCC(CN5CCN(C[C@H]6OC[C@H](Nc7cncc(C(F)(F)F)n7)[C@@H](O)[C@H]6O)CC5)CC4)nn3)C[C@H]1C(=O)N[C@@H](CC(=O)O)C(=O)N2` [Compound 66], the Kd at ASGPR is less than 100 nM; at IgG (SPR, read-out: IgG KD), less than 100 nM. Moreover, the EC50 (with HepG2 cells (read-out: Uptake EC50); in assay [1] (setting [4])) was less than 100 nM in each case.
For the compound `CC(=O)N[C@H]1[C@H](OCCOCCOCCOCCNC(=O)CCOCC(COCCC(=O)NCCOCCOCCOCCO[C@@H]2O[C@H](CO)[C@H](O)[C@H](O)[C@H]2NC(C)=O)(COCCC(=O)NCCOCCOCCOCCO[C@@H]2O[C@H](CO)[C@H](O)[C@H](O)[C@H]2NC(C)=O)NC(=O)CCCCCn2cc(CCCC(=O)NCCOCCOCCOCCOCCC(=O)N[C@H]3C[C@H]4C(=O)N[C@@H](CC(=O)O)C(=O)N[C@H]5CSSC[C@H](NC(=O)[C@H](Cc6c[nH]c7ccccc67)NC(=O)[C@H](C(C)C)NC(=O)[C@H](CC(C)C)NC(=O)[C@H](CCC(=O)O)NC(=O)CNC(=O)[C@H](CC(C)C)NC(=O)[C@H](Cc6c[nH]cn6)NC(=O)[C@H](Cc6c[nH]c7ccccc67)NC(=O)[C@H](C)NC5=O)C(=O)N[C@@H]([C@@H](C)O)C(=O)N5CCC[C@@H]5C(=O)N4C3)nn2)O[C@H](CO)[C@H](O)[C@@H]1O` [Compound 85], the Kd on ASGPR is 500 to 1000 nM; at IgG (SPR, read-out: IgG KD) it was less than 100 nM. In addition, the EC50 (in the assay on HepG2 cells (read-out: Uptake EC50); in assay [1]) was greater than 1000 nM in each case.
Regarding `CC(C)C[C@@H]1NC(=O)[C@H](Cc2cnc[nH]2)NC(=O)[C@H](Cc2c[nH]c3ccccc23)NC(=O)[C@H](C)NC(=O)[C@@H]2CSSC[C@H](NC(=O)[C@H](Cc3c[nH]c4ccccc34)NC(=O)[C@H](C(C)C)NC(=O)[C@H](CC(C)C)NC(=O)[C@H](CCC(=O)O)NC(=O)CNC1=O)C(=O)N[C@@H]([C@@H](C)O)C(=O)N1CCC[C@@H]1C(=O)N1C[C@@H](NC(=O)CC(=O)NC[C@H]3OC[C@H](Nc4cncc(C(F)(F)F)n4)[C@@H](O)[C@H]3O)C[C@H]1C(=O)N[C@@H](CC(=O)O)C(=O)N2` [Compound 62], the Kd is less than 100 nM at ASGPR and less than 100 nM at IgG (SPR, read-out: IgG KD). The EC50 (in the assay on HepG2 cells (read-out: Uptake EC50); in assay [1] (setting [4])) was less than 100 nM throughout.
Turning to `CC(C)C[C@@H]1NC(=O)[C@H](Cc2cnc[nH]2)NC(=O)[C@H](Cc2c[nH]c3ccccc23)NC(=O)[C@H](C)NC(=O)[C@@H]2CSSC[C@H](NC(=O)[C@H](Cc3c[nH]c4ccccc34)NC(=O)[C@H](C(C)C)NC(=O)[C@H](CC(C)C)NC(=O)[C@H](CCC(=O)O)NC(=O)CNC1=O)C(=O)N[C@@H]([C@@H](C)O)C(=O)N1CCC[C@@H]1C(=O)N1C[C@@H](NC(=O)c3ccc(C(=O)NC[C@H]4OC[C@H](Nc5cncc(C(F)(F)F)n5)[C@@H](O)[C@H]4O)cc3)C[C@H]1C(=O)N[C@@H](CC(=O)O)C(=O)N2` [Compound 67], the Kd was less than 100 nM at ASGPR and less than 100 nM at IgG (SPR, read-out: IgG KD). Further, the EC50 (with HepG2 cells (read-out: Uptake EC50); in assay [1] (setting [4])) was greater than 1000 nM each time.
For the compound `CC(=O)N[C@H]1[C@H](OCCOCCOCCOCCNC(=O)CCOCC(COCCC(=O)NCCOCCOCCOCCO[C@@H]2O[C@H](CO)[C@H](O)[C@H](O)[C@H]2NC(C)=O)NC(=O)CCCCCn2cc(CCCC(=O)NCCOCCOCCOCCOCCC(=O)N[C@H]3C[C@H]4C(=O)N[C@@H](CC(=O)O)C(=O)N[C@H]5CSSC[C@H](NC(=O)[C@H](Cc6c[nH]c7ccccc67)NC(=O)[C@H](C(C)C)NC(=O)[C@H](CC(C)C)NC(=O)[C@H](CCC(=O)O)NC(=O)CNC(=O)[C@H](CC(C)C)NC(=O)[C@H](Cc6c[nH]cn6)NC(=O)[C@H](Cc6c[nH]c7ccccc67)NC(=O)[C@H](C)NC5=O)C(=O)N[C@@H]([C@@H](C)O)C(=O)N5CCC[C@@H]5C(=O)N4C3)nn2)O[C@H](CO)[C@H](O)[C@@H]1O` [Compound 84], the Kd at ASGPR was greater than 1000 nM; on IgG (SPR, read-out: IgG KD), less than 100 nM. The EC50 (in the assay with HepG2 cells (read-out: Uptake EC50); in assay [1]) was greater than 1000 nM in each case.
Consider `CC(C)C[C@@H]1NC(=O)[C@H](Cc2cnc[nH]2)NC(=O)[C@H](Cc2c[nH]c3ccccc23)NC(=O)[C@H](C)NC(=O)[C@@H]2CSSC[C@H](NC(=O)[C@H](Cc3c[nH]c4ccccc34)NC(=O)[C@H](C(C)C)NC(=O)[C@H](CC(C)C)NC(=O)[C@H](CCC(=O)O)NC(=O)CNC1=O)C(=O)N[C@@H]([C@@H](C)O)C(=O)N1CCC[C@@H]1C(=O)N1C[C@@H](NC(=O)CCOCCNC(=O)CCCc3cn(C[C@@]45CO[C@@H](O4)[C@H](Nc4nc(Cl)ns4)[C@@H](O)[C@H]5O)nn3)C[C@H]1C(=O)N[C@@H](CC(=O)O)C(=O)N2` [Compound 7], for which the Kd at ASGPR and on IgG (setting [3]) was less than 100 nM each time. Further, the figures for the EC50 (with HepG2 cells (setting [2]); in assay [1]) were 100 to 500 nM and less than 100 nM, respectively.
Consider `CC(C)C[C@@H]1NC(=O)[C@H](Cc2c[nH]cn2)NC(=O)[C@H](Cc2c[nH]c3ccccc23)NC(=O)[C@H](C)NC(=O)[C@@H]2CSSC[C@H](NC(=O)[C@H](Cc3c[nH]c4ccccc34)NC(=O)[C@H](C(C)C)NC(=O)[C@H](CC(C)C)NC(=O)[C@H](CCC(=O)N(C)C)NC(=O)CNC1=O)C(=O)N[C@@H]([C@@H](C)O)C(=O)N1CCC[C@@H]1C(=O)N1C[C@@H](NC(=O)CNC(COCCC(=O)NCCOCCOCCOCCOC[C@H]3OC[C@H](Nc4cncc(C(F)(F)F)n4)[C@@H](O)[C@H]3O)COCCC(=O)NCCOCCOCCOCCOC[C@H]3OC[C@H](Nc4cncc(C(F)(F)F)n4)[C@@H](O)[C@H]3O)C[C@H]1C(=O)N[C@@H](CC(N)=O)C(=O)N2` [Compound 78] (cyclo(AWHLGE(NMe2)LVWCT[dP][X1](X2)NC); disulfide 10-15), for which the Kd is less than 100 nM at ASGPR and less than 100 nM on IgG (SPR, read-out: IgG KD). In addition, the EC50 in the assay on HepG2 cells (read-out: Uptake EC50) is less than 100 nM; in assay [1] (TCF EC50, HepG2 cells, ternary complex formation) it was less than 100 nM.
For the compound `CC(C)C[C@@H]1NC(=O)[C@H](Cc2cnc[nH]2)NC(=O)[C@H](Cc2c[nH]c3ccccc23)NC(=O)[C@H](C)NC(=O)[C@@H]2CSSC[C@H](NC(=O)[C@H](Cc3c[nH]c4ccccc34)NC(=O)[C@H](C(C)C)NC(=O)[C@H](CC(C)C)NC(=O)[C@H](CCC(=O)O)NC(=O)CNC1=O)C(=O)N[C@@H]([C@@H](C)O)C(=O)N1CCC[C@@H]1C(=O)N1C[C@@H](NC(=O)COc3ccc(CC(=O)NC[C@H]4OC[C@H](Nc5cncc(C(F)(F)F)n5)[C@@H](O)[C@H]4O)cc3)C[C@H]1C(=O)N[C@@H](CC(=O)O)C(=O)N2` [Compound 61], the Kd at ASGPR was less than 100 nM; on IgG (SPR, read-out: IgG KD), less than 100 nM. Further, the EC50 (in the assay on HepG2 cells (read-out: Uptake EC50); in assay [1] (setting [4])) was less than 100 nM each time.
